Measured values published in paper PMC5884648, “Relationship between the agonist activity of synthetic ligands of TRAIL-R2 and their cell surface binding modes” (Oncotarget, 2018).
*1 amine or outer side, *2 acyl side, *3 side chain or, on linkers, in order; H or OH if unused. Where a SMILES comes first, the peptide text is derived from it. Bridges are numbered along the chain shown (N, C = ends). Roman numbers before positions name the chains, in order. X1 = CN(CCCC(=O)NC(CCC(=O)[*:1])CCC(=O)[*:2])C(=O)c1ccccc1-c1c2ccc(=N)c(S(=O)(=O)O)c-2oc2c(S(=O)(=O)O)c(N)ccc12; X2 = NC(CCC(=O)[*:1])CCC(=O)[*:2]

Assays:
BJAB cells = test: Cell viability MTS assay, BJAB; format: cell-based, human; conditions: 24 hours
Procedure: (§1) BJAB, Jurkat and HCT116 cells (10^5 cells/well) were cultured in 100 µL of culture medium in 96-flat bottom well plates. The next day, cells were treated with the indicated concentrations of the different TRAILmin/DR5 peptides. After 24 hours of treatment cell viability measurement was performed by the MTS assay according to the manufacturer specification (Promega Corporation, Madison, WI, USA).

HCT116 cells = test: Cell viability MTS assay, HCT116; format: cell-based, human; conditions: 24 hours
Procedure: as §1

Jurkat cells = test: Cell viability MTS assay, Jurkat; format: cell-based, human; conditions: 24 hours
Procedure: as §1

human TRAIL-R2 = target: T1, human TRAIL-R2 (Homo sapiens, UniProt O14763); test: Surface plasmon resonance on sensor-immobilized TRAIL-R2; format: binding; conditions: for koff / kon: 25° C, Langmuir model
T1 construct: purchased Enzo Life Sciences
T1 sequence (O14763 56-440): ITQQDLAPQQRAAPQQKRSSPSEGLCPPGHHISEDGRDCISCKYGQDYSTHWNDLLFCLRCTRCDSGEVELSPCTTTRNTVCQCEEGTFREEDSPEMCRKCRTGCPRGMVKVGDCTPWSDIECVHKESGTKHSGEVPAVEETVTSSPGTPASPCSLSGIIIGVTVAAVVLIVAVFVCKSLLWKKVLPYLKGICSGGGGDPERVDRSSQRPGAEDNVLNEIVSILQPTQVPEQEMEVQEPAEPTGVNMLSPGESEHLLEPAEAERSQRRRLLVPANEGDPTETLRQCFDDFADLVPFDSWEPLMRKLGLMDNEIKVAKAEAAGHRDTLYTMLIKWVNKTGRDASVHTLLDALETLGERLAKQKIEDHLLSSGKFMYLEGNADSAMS
Procedure: SPR assays were performed on a Biacore T200™, at 25° C. The running buffer was HBS-EP [10 mM HEPES (pH 7.4) containing 0.15 M NaCl, 3.4 mM EDTA and 0.005% (v/v) Tween P20]. The human TRAIL-R2 (Enzo Life Sciences, Farmingdale, NY, USA) receptor was immobilized on a sCM5 sensor chip (GE Healthcare) using the standard amine coupling procedure. The receptors were diluted in 10 mM acetate buffer (pH 5.0) at a concentration of 5 μg/mL. The TRAIL-R2 immobilization level on the sensor chip was 430 RU. Peptides were injected at a flow rate of 5 μL/min for 120 s and allowed to dissociate for an additional 420 s. Surfaces were then regenerated for 5 s with 25 mM HCl. All binding curves were double-referenced (i.e. subtraction of the data of the empty flow cell followed by the subtraction of the data from a running buffer injection cycle).
(§2) Double-referenced SPR binding curves sets were fitted globally using the BIAevaluation 4.1.1 (GE Healthcare Biacore) or TraceDrawer (Ridgeview Diagnostics AB, Uppsala, Sweden) softwares. The signal recorded with the LigandTracer on an empty spot or slide was subtracted from that recorded on cell-carrying slides. The resulting binding curves were analyzed by kinetic distribution analysis using the tool Interaction Map (Ridgeview Diagnostics AB, Uppsala, Sweden). Interaction Map decomposes the kinetic curve recorded for the binding of a homogeneous ligand to a heterogeneous group of targets into its different components. Results are represented as interaction maps (kon versus koff, log scale), where the color of each populated area represents its degree of contribution to the kinetic curve (red = high contribution, blue = low contribution).

[1] = target: T2, TRAIL-R2 expressed on HCT116 cells (Homo sapiens, UniProt O14763); test: LigandTracer real time binding on living HCT116 cells; conditions: HCT116 cells expressing TRAIL-R2
T2 construct: we used BJAB, HCT116 and Jurkat that express a natural level of TRAIL-R2 receptors; endogenous in cells; host or cells: HCT116
T2 sequence (O14763 56-440): as above
Procedure: The adherent cells HCT116-TRAIL-R2-DEF and HCT116 cells were directly plated on glass slides (Ø20 mm) (10^6 cells/well). The cells in suspension (BJAB and BJAB-TRAIL-R2-DEF) were covalently adhered to glass slides coated with poly-L-lysine (0.1% v/v) (Sigma Aldrich, Saint Louis, MO, USA). The adhesion was strong enough for measurement during 10h. After 24 hours, the slides were fixed with superglue at different locations of a Petri dish, which was inserted in the LigandTracer Green instrument (Ridgeview Instrument AB, Uppsala, Sweden). An empty spot or empty glass slide fixed to the Petri dish was used to record the background signal. This set-up allowed the simultaneous monitoring of the binding of a given peptide to different cell-carrying glass slides fixed to the dish. […] The fluorescence signal is recorded over time when the slide is out of the solution, and therefore corresponds to the amount of bound peptide. […]
Double-referenced SPR binding curves sets were fitted globally using the BIAevaluation 4.1.1 (GE Healthcare Biacore) or TraceDrawer (Ridgeview Diagnostics AB, Uppsala, Sweden) softwares. The signal recorded with the LigandTracer on an empty spot or slide was subtracted from that recorded on cell-carrying slides. The resulting binding curves were analyzed by kinetic distribution analysis using the tool Interaction Map (Ridgeview Diagnostics AB, Uppsala, Sweden). […]

[2] = target: T3, TRAIL-R2 expressed on Jurkat cells (Homo sapiens, UniProt O14763); test: LigandTracer real time binding on living Jurkat cells
T3 construct: we used BJAB, HCT116 and Jurkat that express a natural level of TRAIL-R2 receptors; endogenous in cells; host or cells: Jurkat
T3 sequence (O14763 56-440): as above

TRAIL-R2 on BJAB cells = target: T4, TRAIL-R2 on BJAB cells (Homo sapiens, UniProt O14763); test: Flow cytometry staining with fluorescent peptides, BJAB; format: binding
T4 construct: expressed in transfected cells
T4 sequence (O14763 56-440): as above
Procedure: (§3) 10^6 cells were washed in PBS containing 2% FCS and then incubated at 4° C for 30 min with an anti-TRAIL-R2 antibody (clone BK9 Diaclone, Besançon, France) according to concentration recommended by the manufacturer or with fluorescent peptides at the concentration of 1 µM. After two washes in PBS-2% FBS, TRAIL-R2 expression was monitored by flow cytometry (Guava easyCyte™, Merck Milipore, Darmstadt, Germany) and data were analyzed with InCyte Software (Merck Milipore).

TRAIL-R2 on HCT116 cells = target: T5, TRAIL-R2 on HCT116 cells (Homo sapiens, UniProt O14763); test: Flow cytometry staining with fluorescent peptides, HCT116; format: binding
T5 construct: we used BJAB, HCT116 and Jurkat that express a natural level of TRAIL-R2 receptors; endogenous in cells; host or cells: HCT116
T5 sequence (O14763 56-440): as above
Procedure: as §3

[3] = target: TRAIL-R2 expressed on BJAB cells (Homo sapiens, UniProt O14763); test: LigandTracer real time binding on living BJAB cells; design: expressed in transfected cells
Chain of TRAIL-R2 expressed on BJAB cells (O14763 56-440): as above
Procedure: The adherent cells HCT116-TRAIL-R2-DEF and HCT116 cells were directly plated on glass slides (Ø20 mm) (10^6 cells/well). The cells in suspension (BJAB and BJAB-TRAIL-R2-DEF) were covalently adhered to glass slides coated with poly-L-lysine (0.1% v/v) (Sigma Aldrich, Saint Louis, MO, USA). The adhesion was strong enough for measurement during 10h. After 24 hours, the slides were fixed with superglue at different locations of a Petri dish, which was inserted in the LigandTracer Green instrument (Ridgeview Instrument AB, Uppsala, Sweden). An empty spot or empty glass slide fixed to the Petri dish was used to record the background signal. This set-up allowed the simultaneous monitoring of the binding of a given peptide to different cell-carrying glass slides fixed to the dish. Three mL of solution (culture medium without or with fluorescent peptide) were added to the dish. In the LigandTracer instrument, the dish is tilted and rotates. Consequently the 3 mL solution covers only the lower part of the dish and each cell-carrying slide is alternatively in contact and out of contact with the solution (at intervals of 8 to 16 s). The fluorescence signal is recorded over time when the slide is out of the solution, and therefore corresponds to the amount of bound peptide. The solution in the dish was initially the culture medium (∼30 min) to provide a stable base line. The fluorescent peptide was then added in increasing doses (10, 30 and 90 nM) every two to three hours. Finally the peptide-containing sample was replaced with fresh medium and the dissociation of the peptide from the cells was followed overnight. The measurements were conducted at room temperature (approximately 20° C).
as §2

Compound	apoptosis induction in BJAB cells (BJAB cells)	apoptosis induction in HCT116 cells (HCT116 cells)	apoptosis induction in Jurkat cells (Jurkat cells)	koff (human TRAIL-R2; SPR)	kon (human TRAIL-R2; SPR)	KD of 2d smaller than KD of 1d (human TRAIL-R2; SPR, ratio of KD 1d to 2d)	Rmax (human TRAIL-R2; TRAIL-R2 surface 1, one:one interaction model)	Rmax (human TRAIL-R2; TRAIL-R2 surface 2, one:one interaction model)	cell surface binding [1]	cell surface binding [2]	binding by flow cytometry (TRAIL-R2 on BJAB cells; BJAB cells deficient for TRAIL-R2, peptide 1 µM)	binding by flow cytometry (TRAIL-R2 on BJAB cells; BJAB cells expressing TRAIL-R2, peptide 1 µM)	binding by flow cytometry (TRAIL-R2 on HCT116 cells; HCT116 cells deficient for TRAIL-R2, peptide 1 µM)	binding by flow cytometry (TRAIL-R2 on HCT116 cells; HCT116 cells expressing TRAIL-R2, peptide 1 µM)	cell surface binding ([3]; BJAB cells deficient for TRAIL-R2)	cell surface binding ([3]; BJAB cells expressing TRAIL-R2)	fluorescent signal reached ([3]; BJAB cells that expressed TRAIL-R2, 10, 30 and (f1d) 90 nM)
CC[C@H](C)[C@@H]1NC(=O)[C@H](CCCNC(=N)N)NC(=O)[C@H](CC(N)=O)NC(=O)[C@H](CC(=O)O)NC(=O)[C@H](CC(C)C)NC(=O)[C@@H](NC(=O)[C@H](CC(=O)O)NC(=O)[C@H](Cc2c[nH]c3ccccc23)NC(C)=O)CSSC[C@@H](C(=O)N[C@H](C(=O)N[C@@H](CCCNC(=N)N)C(=O)N[C@@H](CC(C)C)C(N)=O)C(C)C)NC(=O)[C@H](CCC(N)=O)NC(=O)[C@H](CCCNC(=N)N)NC(=O)[C@H](CCCCNC(=O)CCC(N)CCC(=O)NCCCC[C@@H]2NC(=O)CNC(=O)[C@H]([C@@H](C)CC)NC(=O)[C@H](CCCNC(=N)N)NC(=O)[C@H](CC(N)=O)NC(=O)[C@H](CC(=O)O)NC(=O)[C@H](CC(C)C)NC(=O)[C@@H](NC(=O)[C@H](CC(=O)O)NC(=O)[C@H](Cc3c[nH]c4ccccc34)NC(C)=O)CSSC[C@@H](C(=O)N[C@H](C(=O)N[C@@H](CCCNC(=N)N)C(=O)N[C@@H](CC(C)C)C(N)=O)C(C)C)NC(=O)[C@H](CCC(N)=O)NC(=O)[C@H](CCCNC(=N)N)NC2=O)NC(=O)CNC1=O (stereo partly drawn) [2d] (I: Ac-WDCLDNRIGKRQCVRL-NH2 / II: Ac-WDCLDNRIGKRQCVRL-NH2; disulfide I:3-I:13, II:3-II:13; linker I:10-II:10 via X2; N-terminus and C-terminus assumed)	underwent apoptosis	strong resistance	strong resistance	0.00018 s⁻¹	1.5e+06 M⁻¹ s⁻¹	approximately 400 fold	33	12	–	–	–	–	–	–	–	–	–
CC[C@H](C)[C@@H]1NC(=O)[C@H](CCCNC(=N)N)NC(=O)[C@H](CC(N)=O)NC(=O)[C@H](CC(=O)O)NC(=O)[C@H](CC(C)C)NC(=O)[C@@H](NC(=O)[C@H](CC(=O)O)NC(=O)[C@H](Cc2c[nH]c3ccccc23)NC(C)=O)CSSC[C@@H](C(=O)N[C@H](C(=O)N[C@@H](CCCNC(=N)N)C(=O)N[C@@H](CC(C)C)C(N)=O)C(C)C)NC(=O)[C@H](CCC(N)=O)NC(=O)[C@H](CCCNC(=N)N)NC(=O)[C@H](CCCCNC(=O)CCC(CCC(=O)NCCCC[C@@H]2NC(=O)CNC(=O)[C@H]([C@@H](C)CC)NC(=O)[C@H](CCCNC(=N)N)NC(=O)[C@H](CC(N)=O)NC(=O)[C@H](CC(=O)O)NC(=O)[C@H](CC(C)C)NC(=O)[C@@H](NC(=O)[C@H](CC(=O)O)NC(=O)[C@H](Cc3c[nH]c4ccccc34)NC(C)=O)CSSC[C@@H](C(=O)N[C@H](C(=O)N[C@@H](CCCNC(=N)N)C(=O)N[C@@H](CC(C)C)C(N)=O)C(C)C)NC(=O)[C@H](CCC(N)=O)NC(=O)[C@H](CCCNC(=N)N)NC2=O)NC(=O)CCCN(C)C(=O)c2ccccc2-c2c3ccc(=N)c(S(=O)(=O)O)c-3oc3c(S(=O)(=O)O)c(N)ccc23)NC(=O)CNC1=O (stereo partly drawn) [f2d] (I: Ac-WDCLDNRIGKRQCVRL-NH2 / II: Ac-WDCLDNRIGKRQCVRL-NH2; disulfide I:3-I:13, II:3-II:13; linker I:10-II:10 via X1; N-terminus and C-terminus assumed)	induced apoptosis	scarcely induced their apoptosis	–	0.00026 s⁻¹	150000 M⁻¹ s⁻¹	–	–	–	bound weakly	weak binding signal, if any	not	bound	not	bound	weak signals	strong binding	> 25
